Measurements from patent EP1057484A1, “CELL DEATH INHIBITORS” (priority 1998, dated 1999).

How the values were obtained:
[1] = test system: Porcine Ovarian Granulosa Cells; test: Test Example 7: inhibition of SNP-induced apoptosis of undifferentiated POGC; type: cell-based; conditions: Sus scrofa; for complete inhibition of apoptosis; SNP 0.5 mM; cells observed after 48 hours; read-out: Minimum effective concentration
cerebellar granule cells [2] = test: Test Example 10: hydrogen peroxide-induced death of cerebellar granule cells; type: cell-based, rats; conditions: Rattus norvegicus, read-out: cells alive
Protocol: (§1) According to a known method (A Dissection and Tissue Culture Manual of the Nervous System, p. 211, 1989, Alan R, Liss, Inc.), cerebellar granule cells were isolated from the cerebellum of 7 days old rats and cultured. Namely, after conducting isolation procedures described in the above literature, the resulting cells were resuspended in DMEM containing 10% fetal bovine serum, 25 mM KCl and 2 mM glutamine, and seeded in poly-lysine coated plates. After the cells were cultured in a CO2 incubator for 48 hours according to a conventional method, cytosine-1-β-D(+)-arabinofuranoside (Ara-C) (10 µM) was added thereto, and the cell was continued to culture. The following experiments were conducted with the cells of 7 to 14 days old from the start day of the culture, the cells having completed neurite extension sufficiently. […] Furthermore, experiments were conducted by increasing a concentration of hydrogen peroxide to 300 µM. In the cases that Test Compound 18 (10 µM), Test Compound 19 (10 µM), or Test Compound 20 (10 µM) were added, about 90%, 90%, and 70% of the cells were alive, respectively, on observations after 16 hours.

cerebellar granule cells [3] = test: Test Example 11: SNP-induced death of cerebellar granule cells; type: cell-based, rats; conditions: Rattus norvegicus; 10 µM added prior to SNP (1.5 µM); observation after 12 hours; read-out: cells alive
erythrocytes = test: Test Example 13: hydrogen peroxide-induced death of erythrocytes; type: cell-based; conditions: Homo sapiens, Erythrocyte, read-out: ratios of dead erythrocytes (dark ghost cells); for cytotoxicity at 20 µM: 20 µM added prior to hydrogen peroxide (300 µM)
Protocol: After human blood (2 mL) was centrifuged at 1000 rpm for 5 min, the resulting cell pellets containing erythrocytes were washed three times with a DMEM medium and the cells were resuspended in the same medium (15 mL) (about 5 × 10^8 cells/mL). Ten µL of this suspension was added with 10% FCS/DMEM (10 mL), and the cells were plated in 48 well plates (500 µL/well). When hydrogen peroxide (300 µM) was added to the erythrocyte culture solution and the cells were cultured for 24 hours, all erythrocytes were dead on observations under a light microscopy (all erythrocytes were subjected to shape changes from a bright, round and concave shape into a dark hemolytic ghost through multiple shape changes). On the other hand, Test Compound 14 (30 µM), Test Compound 18 (10 µM), Test Compound 19 (20 µM) or Test Compound 20 (20 µM) was added prior to the hydrogen peroxide addition.

[4] = test system: Primary cultured fibroblasts; test: Test Example 14: SNP-induced apoptosis of primary cultured fibroblasts; type: cell-based, mice; conditions: Mus musculus, Fibroblast, observation after 48 hours, read-out: cells alive
Protocol: Primary cultured fibroblasts were prepared from mice according to a known method (Kinou Saibou no Bunri to Baiyou (Isolation and Culture of Functional Cells), Maruzen, 1987, p. 59). Namely, after removing skin hairs from mice with shaving foam followed by disinfection with a chlorhexidine gluconate solution, tiny skin fragments were isolated. […] After migration of fibroblasts became obvious, the slide glasses and the residual skin fragments were removed, and the culture was continued. […] In the cases that Test Compound 14 (5 µM) or Test Compound 18 (2.5 µM) was added to the present culture system prior to the SNP addition, apoptosis in both cultures was inhibited and more than 95% of cells were alive on an observation after 48 hours.

undifferentiated POGC [5] = test: Test Example 8: bilirubin-induced cell death of undifferentiated POGC; type: cell-based, porcine; conditions: Sus scrofa, 96 h; 10 µM added prior to bilirubin (30 µg/mL); observation after 4 days; read-out: survival of the cells
4B2 cells = test: Test Example 9: SNP-induced apoptosis of 4B2 granulosa cell line; type: cell-based; conditions: Mus musculus; 10 µM added prior to SNP (0.5 mM); observation after 24 hours; read-out: cells alive
Protocol: Mouse granulosa cells were transfected with SV40 T antigen and cDNA of steroidogenic factor-1 (SF-1/Ad4BP) to establish a cell line, named 4B2. The cell secretes progesterone in response to protein kinase-A. The 4B2 cells were cultured in 48-well culture plates until subconfluency in DMEM containing 10% fetal bovine serum in a CO2 incubator according to a conventional manner. After the medium was switched to DMEM containing 2% fetal bovine serum, SNP (0.5 mM) was added thereto. […] Then, prior to the addition of SNP, Test Compound 13, 14, 17, 20, 24 or 25 (10 µM each) was added to the present medium and observations on cells were made after 24 hours.

[6] = test system: monolayer cells derived from the mouse kidneys; test: Test Example 15: SNP-induced apoptosis of monolayer cells derived from kidneys; type: cell-based, mice; conditions: observation after 48 hours, read-out: cells alive
Protocol: Kidneys isolated from mice were dissected into minute pieces in a serum-free DMEM, which were dispersed with trypsin/EDTA treatment. After leaving it for a while, the supernatant was discarded, and the pellet was transferred to a culture plate and cultured in DMEM containing 10% fetal bovine serum in a CO2 incubator according to a conventional manner. After tissues were adhered onto a culture plate and subsequently cell colonies got formed, the tissues were removed and the colonies were subcultured in the same medium. The resulting monolayer cells derived from the mouse kidneys were morphologically different from fibroblasts. […] Then, Test Compound 14 (5 µM) or Test Compound 18 (2.5 µM) was added prior to the SNP addition and the cells were observed.

cerebellar granule cells [7] = test: Test Example 12: bilirubin-induced death of cerebellar granule cells; type: cell-based, rats; conditions: Rattus norvegicus; 10 µM added prior to bilirubin (100 µg/ml); observation after 18 hours; read-out: cells alive
Protocol: as §1
Neonatal jaundice is known to induce severe brain damages by way of abnormally high concentration of bilirubin in the body. […]

POGC [8] = test: Test Example 4: cell death of POGC in long term serum-free, hormone-free culture; type: cell-based, porcine; conditions: Sus scrofa, 168 h, observation at 7 days after the death of cells treated with no test compound, read-out: survival of the cells
Excerpt: (§2) The ovarian granulosa cells are cells surrounding an ovum, and proliferate and differentiate by the action of follicle stimulating hormone (FSH) and luteinizing hormone (LH) in response to sexual cycles, during which they acquire a progesterone-producing ability. Unovulatory follicles finally undergo apoptosis and disappear. The differentiation process can be mimicked following to a known method (Endocrinology, Vol. 136, p. 3470, 1995) as shown in the following in vitro experiment. Furthermore, when they are continuously cultured with maintaining final differentiation ability, they are observed to undergo apoptosis as described below. Namely, porcine ovaries were rinsed with PBS buffer, and porcine ovarian granulosa cells (POGC) were collected by aspiration from antral follicles with a syringe. Cell fraction was recovered as a precipitate by centrifugation of the suspension. The operation of suspending the cell fraction into PBS buffer and subjecting the resulting suspension to centrifugation was repeated three times to wash the cells. […] Upon continued culture, these completely differentiated cells undergo cell death synchronously after about 5 days, the cell death being monitored by a trypan blue exclusion test and a MTT (3-(4,5-dimethylthiazol-2-yl)-2,5-diphenyltetrazolium bromide) test. […]

[9] = test system: Porcine ovarian granulosa cells (POGC); test: Test Example 2: cell death of terminally differentiated (FSH/LH) POGC on continued culture; type: cell-based; conditions: Sus scrofa, 168 h; 3 µM added 4 days after final medium refreshment; observation 7 days after addition; read-out: cells alive
Excerpt: The ovarian granulosa cells are cells surrounding an ovum, and proliferate and differentiate by the action of follicle stimulating hormone (FSH) and luteinizing hormone (LH) in response to sexual cycles, during which they acquire a progesterone-producing ability. Unovulatory follicles finally undergo apoptosis and disappear. The differentiation process can be mimicked following to a known method (Endocrinology, Vol. 136, p. 3470, 1995) as shown in the following in vitro experiment. Furthermore, when they are continuously cultured with maintaining final differentiation ability, they are observed to undergo apoptosis as described below. Namely, porcine ovaries were rinsed with PBS buffer, and porcine ovarian granulosa cells (POGC) were collected by aspiration from antral follicles with a syringe. Cell fraction was recovered as a precipitate by centrifugation of the suspension. The operation of suspending the cell fraction into PBS buffer and subjecting the resulting suspension to centrifugation was repeated three times to wash the cells. […] Upon continued culture, these completely differentiated cells undergo cell death synchronously after about 5 days, the cell death being monitored by a trypan blue exclusion test and a MTT (3-(4,5-dimethylthiazol-2-yl)-2,5-diphenyltetrazolium bromide) test.

undifferentiated POGC [10] = test: Test Example 6: hydrogen peroxide-induced cell death of undifferentiated POGC; type: cell-based, porcine; conditions: Sus scrofa; 3 µM added prior to hydrogen peroxide (100 µm); observation after 24 hours; read-out: cells alive
[11] = test system: Porcine ovarian granulosa cells (POGC); test: Test Example 3: PGF2α-induced cell death of terminally differentiated POGC; type: cell-based; conditions: Sus scrofa; 3 µM added prior to PGF2α (50 µg/mL); observation after 16 hour; read-out: survival of the cells
Excerpt: as §2

POGC [12] = test: Test Example 5: staurosporine-induced cell death of completely differentiated POGC; type: cell-based, porcine; conditions: Sus scrofa; 3 µM added prior to staurosporine (3 nM); observation after 68 hours; read-out: cells alive
Excerpt: as §2

[13] = 10 µM added prior to hydrogen peroxide (10 µM), observation after 12 hours
[14] = 10 µM, hydrogen peroxide 300 µM, observation after 16 hours
[15] = 5 µM added prior to SNP (0.5 mM)
[16] = 2.5 µM added prior to SNP (0.5 mM)

SMILES	minimal effective concentration [1] [µM]	viability at 10 µM (cerebellar granule cells [2]; [13]) [%]	viability at 10 µM (cerebellar granule cells [2]; [14]) [%]	viability at 10 µM (cerebellar granule cells [3]) [%]	cytotoxicity at 20 µM (erythrocytes; observation after 24 hours) [%]	viability at 10 µM (undifferentiated POGC [5]) [%]	viability at 10 µM (4B2 cells) [%]	other results
CN1C(=O)C(c2c[nH]c3ccccc23)=C(c2cn(CCCN)c3ccccc23)C1=O [Compound 19]	0.7	> 95	~90	> 95	10	–	–	–
CN1C(=O)C(c2c[nH]c3ccccc23)=C(c2c[nH]c3ccccc23)C1=O	–	–	–	> 95	–	50	> 95	viability at 5 µM [4, 15]: > 95%; cytotoxicity at 30 µM (erythrocytes; 30 µM added prior to hydrogen peroxide (300 µM), observation after 24 hours): 20%; viability at 5 µM [6, 15]: > 95%
CC(=O)NCCCn1cc(C2=C(c3c[nH]c4ccccc34)C(=O)N(C)C2=O)c2ccccc21 [Compound 20]	7	–	~70	> 95	10	–	> 95	viability at 10 µM (cerebellar granule cells [7]): ~80%
CN(C)CCCn1cc(C2=C(c3c[nH]c4ccccc34)C(=O)NC2=O)c2ccccc21 [Compound 18]	–	–	~90	–	–	–	–	viability at 3 µM (POGC [8]): > 95%; viability at 3 µM [9]: > 95%; viability at 3 µM (undifferentiated POGC [10]): > 95%; viability at 3 µM [11]: > 95%; viability at 2.5 µM [4, 16]: > 95%; cytotoxicity at 10 µM (erythrocytes; 24 h): 20%; viability at 3 µM (POGC [12]): > 95%; viability at 2.5 µM [6, 16]: > 95%
Cc1cccc2c(C3=C(c4c[nH]c5c(C)cccc45)C(=O)N(C)C3=O)c[nH]c12 [Compound 25]	0.3	> 95	–	> 95	–	95	> 95	–
